Experimental data published in patent US7425533B2, “Modified hirudin proteins and T-cell epitopes in hirudin” (Merck Patent GmbH, priority 2003, dated 2008).
Where “and” joins values, the source holds several entries; their conditions need not be identical. Equal entries are not always repeated.

Tests used:
PBMC from healthy donors = assay: time-course T-cell assay, PBMC proliferation with WT and variant peptides; assay type: cell-based, human; settings: cohorts of 20 healthy donors, SI>2 at any time point, days 6, 7, 8 and 9
Description: “Time course assay” refers to a biological assay such as a proliferation assay in which determinations of activity are made sequentially over a period of time. In the present context, a “time course T-cell assay”, refers to the determination of T-cell proliferation in response to a test immunogen (peptide) at multiple times following exposure to the test immunogen. The terms “time course T-cell assay” and “time course immunogenicity assay” may be used interchangeably herein.
Bulk cultures of 2-4×10^6 PBMC/well were established from 20 healthy donor samples in 24 well plates. Cells were incubated for 6 to 9 days with WT and variant peptides spanning the immunogenic regions (see Table 4). T cell proliferation was assessed by tritiated thymidine incorporation on days 6, 7, 8 and 9. Proliferation was assessed at each time point, by gently resuspending the bulk cultures and removing samples of PBMC, that were then incubated in triplicate wells of U-bottomed 96 well plate with 1 μCi/well tritiated thymidine for 18 hours as described above.
The time course assay was used to test variant peptides containing substitutions over WT. Substitutions were made at key locations where there was expectation that the substitution would prevent binding to MHC class II and therefore, subsequent T cell proliferation in the assay. FIG. 2 and FIG. 3 respectively show exemplary donor responses over the time course and overall response frequencies.

human PBMCs = assay: T-cell epitope mapping, PBMC proliferation (tritiated thymidine) with 15 mer hirudin peptides; assay type: cell-based; settings: for donor response (SI>2): initial analysis, 25 donor samples, peptides at 1 μM and 10 μM, 7 days
serine protease thrombin = serine protease thrombin (Homo sapiens, UniProt P00734); settings: native hirudin; cited from earlier work
[1] = cited from earlier work
thrombin = molecular target: T1, thrombin (Homo sapiens, UniProt P00734); assay: chromogenic thrombin inhibition assay; assay type: biochemical; settings: chromogenic substrate H-D-Phe-Pep-Arg-pNA, 37° C., relative to WT hirudin
T1 construct: purchased Diagnostica Stago (via Axis Shield Diagnostics, Dundee, UK) Stachrom HCII assay kit (catalogue number not given)
Description: A “thrombin inhibition assay” according to the present context means an in vitro assay able to provide a reading of the functional capability of the test protein. In the present instance this means the ability of a given hirudin mutein to evoke a specific measurable chromogenic response. Particularly suitable assays are exemplified herein using thrombin and the chromogenic thrombin substrate H-D-Phe-Pep-Arg-pNA. Other assay formats can be contemplated to also provide quantitative estimations of specific activity of the test molecules and permit ED50 determinations. […]
The functional activity of the modified hirudin proteins was assessed using a chromogenic thrombin inhibition assay. […] The chromogenic substrate H-D-Phe-Pep-Arg-pNA is then added and any residual free thrombin present will cleave the substrate to form H-D-Phe-Pep-Arg-OH and pNA that can then be detected spectrophotometrically at 405 nm […]
The plate was warmed to 37° C. for 5 minutes followed by addition of 40 μl thrombin and incubated for 120 seconds at 37° C. with shaking. […] 40 μl acetic acid was added to quench reaction and the plate was read spectrophotometrically at 405 nm. Absorbance at 405 nm vs hirudin concentration was plotted using Sigma plot (Sigma Poole, UK) and IC50 values calculated by fitting a sigmoidal equation. […]

**Q.** Which “% donor response in time course” value (PBMC from healthy donors) does the source give for “CAAGSDGEKNQCVTG (modified hirudin sequence)” here?
**A.** Its value is 5%.

**Q.** For “CRHGSDGEKNQCVTG (modified hirudin sequence)”, which “% donor response in time course” value (PBMC from healthy donors) is on record?
**A.** The value was 5%.

**Q.** What does the source list for “15: 15 mer hirudin peptide VTGEGTPKPESHNDG, SEQ ID NO: 101 (hirudo medicinalis) [Peptide 15]”?
**A.** final response rate (human PBMCs; across a total of 55 donor samples): 4%; donor response (SI>2) (human PBMCs): 8%

**Q.** With Hirudin as the molecule, how does the Ki (serine protease thrombin) read?
**A.** Its Ki is 10^−11 to 10^−14 M.

**Q.** With “CEKGSDGEKNQCVTG (modified hirudin sequence)” as the molecule, how does the “% donor response in time course” value (PBMC from healthy donors) read?
**A.** Its value is 10%.

**Q.** Which “donor response (SI>2)” value (human PBMCs) does the source give for “10: 15 mer hirudin peptide GNKCILGSDGEKNQC, SEQ ID NO: 96 (hirudo medicinalis) [Peptide 10]” here?
**A.** Its value is 8%.

**Q.** With “[Leu^1, Thr^2]-63-desulphohirudin [lepirudin]” as the molecule, how does the fatal outcomes ([1]; among the severe anaphylaxis cases, previous treatment course 1 to 12 weeks earlier) read?
**A.** Its fatal outcomes is 4.

**Q.** What about the “patients judged to have had severe anaphylaxis” value ([1]; between 1994 and 2002, within minutes of intravenous administration) of the same molecule?
**A.** The value was 9 patients.

**Q.** Which “% donor response in time course” value (PBMC from healthy donors) does the source give for “CILGSDGEKNQCVTG (hirudo medicinalis) [reference compound]” here?
**A.** Its value is 25%.

B1: M 25: hirudin mutein I29R L30R, SEQ ID NO: 28 (protein)
chain: VVYTDCTESGQNLCLCEGSVVCGQGNKCRRGSDGEKNQCVTGEGTPKPESHNDGDFEEIPEEYLQ
modifications: ends and bridges not checked
**Q.** With B1 as the molecule, how does the “Relative Activity (Ratio of variant IC50/WT IC50)” value (thrombin) read?
**A.** The value was 0.70.

B2: M 19: hirudin mutein I29E L30K, SEQ ID NO: 22 (protein)
chain: VVYTDCTESGQNLCLCEGSVVCGQGNKCEKGSDGEKNQCVTGEGTPKPESHNDGDFEEIPEEYLQ
modifications: ends and bridges not checked
**Q.** For B2, which “Relative Activity (Ratio of variant IC50/WT IC50)” value (thrombin) is on record?
**A.** The value was 1.0 and 0.55.
